In patent US5681685A, “Photopolymerizable composition containing squarylium compound” (Kyowa Hakko Kogyo Co., Ltd., priority 1994, dated 1997):

Experiments:
[1] = Degraded rate of squarylium compound in photosensitive resin solution with 2,4,6-tris(trichloromethyl)-s-triazine (Example 7); assay type: physicochemical; conditions: 40° C., 3 days, light-screened, ethyl cellosolve, relative to Compound (A)
Procedure: (§1) 0.5 g of pentaerythritol triacrylate, 0.5 g of butyl methacrylate/acrylic acid copolymer (weight-average molecular weight 3,100, copolymerization ratio 66/34), 60 mg of 2,4,6-tris(trichloromethyl)-s-triazine and 2 mg of a squarylium compound were dissolved in ethyl cellosolve to 25 ml to give a photosensitive resin solution. This solution was light-screened and allowed to stand at 40° C. for 3 days. The absorbance at the maximum absorption wavelength present in 600 to 700 nm was measured with a spectrophotometer before (A1) and after (A2) being allowed to stand. The degraded rate of the squarylium compound was obtained according to the following equation:
(§2) Degraded rate (%)=(A1-A2)/A1 ×100
The degraded rates of squarylium Compounds 1 to 9 are shown as a relative value based on the degraded rate of Compound (A) in Table 5.

[2] = Sensitivity of photosensitive layer with iron(II) hexafluorophosphate complex and CARBOSET XL-44 (Example 10); conditions: 630 nm; iron(II) hexafluorophosphate complex, CARBOSET XL-44
Text: (§3) 100 parts of pentaerythritol triacrylate, 100 parts of polymethacrylate polymer [synthesized according to the methods described in Jikkenkagakukoza, Maruzen K. K., 4th edition, volume 28, page 121, 1992; Kobunshigosei no Jikkenho (Experimental method for polymer synthesis), Kagakudojin K. K., coauthored by Takayuki Otsu and Masaetsu Kinoshita, page 138, 1972; average molecular weight 150,000; methyl ester/isobutyl ester/cyclohexyl ester/free carboxylic acid=27/36/25/12], 7.9 parts of 2,4,6-tris(trichloromethyl)-s-triazine and 1 part of a squarylium compound were dissolved in 1900 parts of ethyl cellosolve to give a photosensitive resin solution. This photosensitive solution was spin-coated on an aluminium plate treated with grinding and anodic oxidation, at 1000 rpm so that the dry-state thickness became 2 μm. On this, a 10% aqueous polyvinyl alcohol (Kurarey Poval 706) solution was spin-coated at 1500 rpm so that the dry-state thickness became 1 μm to give a over-coat layer. A step tablet was piled closely on the resulting photosensitive layer, and the rays having the wavelength around 630, 650 or 680 nm were irradiated from 3kw ultra-high pressure mercury lamp through a glass filter. The rays having the wavelength around 630 nm (155 μJ/cm^2 ·s) were obtained by passing the rays from the above mercury lamp through a colored glass filter R-61, an interference filter KL-63 (both were manufactured by Toshiba Glass Co., Ltd.) and a heat rays absorbing filter HA-30 (manufactured by HOYA Corporation), the rays having the wavelength around 650 nm (177 μJ/cm^2 ·s) were obtained by passing the rays from the above mercury lamp through a colored glass filter R-63, an interference filter KL-65 (both were manufactured by Toshiba Glass Co., Ltd.) and HA-30 and the rays having the wavelength around 680 nm (88 μJ/cm^2 ·s) were obtained by passing the rays from the above mercury lamp through a glass filter R-66, an interference filter KL-68 (both were manufactured by Toshiba Glass Co., Ltd.) and HA-30. Then, the development was carried out with a PS plate developer DN3C (manufactured by Fujiphoto Film Co., Ltd.) diluted 1.5-folds with distilled water, an ink was attached thereon with a PS plate developing ink PI-2 (manufactured by Fujiphoto Film Co., Ltd.) and the sensitivity was scored by obtaining an energy amount necessary for hardening from hardening step number with an ink attached thereto.
The sensitivity when the rays having the wavelength around 630 nm were irradiated was obtained by repeating the same procedures as those in Example 9 except that 8 parts of (.eta.^6 -benzene) (.eta.^5 -cyclopentadienyl)iron(II) hexafluorophosphate was used in place of 7.9 parts of 2,4,6-tris(trichloromethyl)-s-triazine and CARBOSET,XL-44 (manufactured by BF Goodrich) was used in place of polymethacrylate polymer (methyl ester/isobutyl ester/cyclohexyl ester/free carboxylic acid=27/36/25/12).

[3] = Degraded rate of squarylium compound in photosensitive resin solution with iron(II) hexafluorophosphate complex (Example 8); assay type: physicochemical; parameters: key: degraded rate relative to that of Compound (A); conditions: 40° C., 32 days, light-screened, ethyl cellosolve, relative to Compound (A)
Procedure: as §1, §2
0.5 g of pentaerythritol triacrylate, 60 mg of polymethyl methacrylate (manufactured by Aldrich; weight-average molecular weight 12,000), 90 mg of (.eta.^6 -benzene)(.eta.^5 cyclopentadienyl)iron(II) hexafluorophosphate and 2 mg of a squarylium compound were dissolved in ethyl cellosolve to 25 ml to give a photosensitive resin solution. Thereafter, the same procedures as those in Example 7 were repeated except that a time for being allowed to stand of 3 days was replaced with that of 32 days to give the degraded rate of the squarylium compound. The degraded rate of squarylium Compounds 1 to 9 are shown as a relative value based on the degraded rate of Compound (A) in Table 6.

[4] = background statement; cited from earlier work
[5] = Sensitivity of photosensitive layer with 3,3',4,4'-tetrakis(tert-butyldioxycarbonyl)benzophenone (Example 11); conditions: 630 nm
Text: as §3
The sensitivity when the rays having the wavelength around 630 nm were irradiated was obtained by repeating the same procedures as those of Example 9 except that 8 parts of 3,3',4,4'-tetrakis(tert-butyldioxycarbonyl)benzophenone was used in place of 7.9 parts of 2,4,6-tris(tichloromethyl)-s-triazine.

[6] = Sensitivity of photosensitive layer with 2,4,6-tris(trichloromethyl)-s-triazine (Example 9); conditions: energy necessary for hardening, s-triazine radical generator
Text: as §3

[7] = in the dark, light screened; background statement; cited from earlier work
[8] = disclosed in JP-A 63-138345, JP-A 63-142346, JP-A 2-48665; cited from earlier work
[9] = Optical absorption property in chloroform; assay type: physicochemical; conditions: solvent chloroform

| SMILES | Relative value of degraded rate [1] | Relative value of degraded rate [3] | logε [9] | λ max [9] | Sensitivity [2] | solubility in an organic solvent or a monomer [4] | Sensitivity [5] | Sensitivity ([6]; 630 nm) | Sensitivity ([6]; 650 nm) | Sensitivity ([6]; 680 nm) | degradation in photosensitizer solution [7] | maximum absorption wavelength [8] |
| --- | --- | --- | --- | --- | --- | --- | --- | --- | --- | --- | --- | --- |
| CN1C(=CC2=C([O-])C(=CC3=[N+](C)c4ccc5ccccc5c4C3(C)C)C2=O)C(C)(C)c2c1ccc1ccccc21 [A, reference compound] | 1.0 | 1.0 |  |  | 11 mJ/cm^2 | low solubility | 0.43 mJ/cm^2 | 0.91 mJ/cm^2 | 0.56 mJ/cm^2 | 0.65 mJ/cm^2 | easily degraded in the dark | 673 nm |
| CCCN1C(=CC2=C([O-])C(=CC3=[N+](CCC)c4ccc5ccccc5c4C3(C)C)C2=O)C(C)(C)c2c1ccc1ccccc21 [Compound 2] | 0.25 | 0.48 | 5.5 | 667 nm |  |  |  | 0.47 mJ/cm^2 | 0.40 mJ/cm^2 | 0.37 mJ/cm^2 |  |  |
| CC(C)N1C(=CC2=C([O-])C(=CC3=[N+](C(C)C)c4ccc5ccccc5c4C3(C)C)C2=O)C(C)(C)c2c1ccc1ccccc21 [Compound 3] | 0.24 | 0.44 | 5.5 | 666 nm |  |  | 0.083 mJ/cm^2 | 0.39 mJ/cm^2 | 0.40 mJ/cm^2 | 0.26 mJ/cm^2 |  |  |
| CCCCN1C(=CC2=C([O-])C(=CC3=[N+](CCCC)c4ccc5ccccc5c4C3(C)C)C2=O)C(C)(C)c2c1ccc1ccccc21 [Compound 4] | 0.29 | 0.60 |  |  |  |  |  | 0.39 mJ/cm^2 | 0.40 mJ/cm^2 | 0.37 mJ/cm^2 |  |  |
| CCCCCN1C(=CC2=C([O-])C(=CC3=[N+](CCCCC)c4ccc5ccccc5c4C3(C)C)C2=O)C(C)(C)c2c1ccc1ccccc21 [Compound 6] | 0.28 | 0.46 | 5.5 | 667 nm | 5.8 mJ/cm^2 |  | 0.099 mJ/cm^2 | 0.56 mJ/cm^2 | 0.40 mJ/cm^2 | 0.37 mJ/cm^2 |  |  |
| CCCCN1C(=CC2=C([O-])C(=CC3=[N+](CCCC)c4ccc5ccccc5c4C3(C)C)C2=O)C(C)(C)c2c1ccc1ccccc21 [Compound 7] | 0.31 | 0.56 |  |  | 5.8 mJ/cm^2 |  | 0.20 mJ/cm^2 | 0.47 mJ/cm^2 | 0.40 mJ/cm^2 | 0.37 mJ/cm^2 |  |  |
| CCCCCCN1C(=CC2=C([O-])C(=CC3=[N+](CCCCCC)c4ccc5ccccc5c4C3(C)C)C2=O)C(C)(C)c2c1ccc1ccccc21 [Compound 9] | 0.26 | 0.52 | 5.5 | 668 nm | 8.7 mJ/cm^2 |  | 0.17 mJ/cm^2 |  |  |  |  |  |

The next lines start with results.

| Relative value of degraded rate [1] | Relative value of degraded rate [3] | logε [9] | λ max [9] | SMILES | Sensitivity [2] | solubility in an organic solvent or a monomer [4] | Sensitivity [5] | Sensitivity ([6]; 630 nm) | Sensitivity ([6]; 650 nm) | Sensitivity ([6]; 680 nm) | degradation in photosensitizer solution [7] | maximum absorption wavelength [8] |
| --- | --- | --- | --- | --- | --- | --- | --- | --- | --- | --- | --- | --- |
| 0.34 | 0.51 |  |  | CCN1C(=CC2=C([O-])C(=CC3=[N+](CC)c4ccc5ccccc5c4C3(C)C)C2=O)C(C)(C)c2c1ccc1ccccc21 [Compound 1] |  |  |  | 0.47 mJ/cm^2 | 0.40 mJ/cm^2 | 0.37 mJ/cm^2 |  |  |
| 0.15 | 0.42 | 5.5 | 669 nm | CC(C)CN1C(=CC2=C([O-])C(=CC3=[N+](CC(C)C)c4ccc5ccccc5c4C3(C)C)C2=O)C(C)(C)c2c1ccc1ccccc21 [Compound 5] | 11 mJ/cm^2 |  | 0.20 mJ/cm^2 | 0.47 mJ/cm^2 | 0.56 mJ/cm^2 | 0.28 mJ/cm^2 |  |  |
| 0.32 | 0.43 | 5.5 | 667 nm | CC(C)CCN1C(=CC2=C([O-])C(=CC3=[N+](CCC(C)C)c4ccc5ccccc5c4C3(C)C)C2=O)C(C)(C)c2c1ccc1ccccc21 [Compound 8] |  |  |  |  |  |  |  |  |
